Measured values from publication PMC12325145, “Preclinical evaluation of [^68Ga]Ga-AAZTA-FAPI-46: a novel PET tracer for targeting fibroblast activation protein (FAP)” (EJNMMI Radiopharmacy and Chemistry, 2025).

Target: T1, fibroblast activation protein (FAP) (Mus musculus, UniProt P97321)
T1 construct: murine FAP stably expressed in HEK293 cells (pCMV6-Kan/Neo-mFAP, Origene MC206606)
T1 sequence (P97321 1-761): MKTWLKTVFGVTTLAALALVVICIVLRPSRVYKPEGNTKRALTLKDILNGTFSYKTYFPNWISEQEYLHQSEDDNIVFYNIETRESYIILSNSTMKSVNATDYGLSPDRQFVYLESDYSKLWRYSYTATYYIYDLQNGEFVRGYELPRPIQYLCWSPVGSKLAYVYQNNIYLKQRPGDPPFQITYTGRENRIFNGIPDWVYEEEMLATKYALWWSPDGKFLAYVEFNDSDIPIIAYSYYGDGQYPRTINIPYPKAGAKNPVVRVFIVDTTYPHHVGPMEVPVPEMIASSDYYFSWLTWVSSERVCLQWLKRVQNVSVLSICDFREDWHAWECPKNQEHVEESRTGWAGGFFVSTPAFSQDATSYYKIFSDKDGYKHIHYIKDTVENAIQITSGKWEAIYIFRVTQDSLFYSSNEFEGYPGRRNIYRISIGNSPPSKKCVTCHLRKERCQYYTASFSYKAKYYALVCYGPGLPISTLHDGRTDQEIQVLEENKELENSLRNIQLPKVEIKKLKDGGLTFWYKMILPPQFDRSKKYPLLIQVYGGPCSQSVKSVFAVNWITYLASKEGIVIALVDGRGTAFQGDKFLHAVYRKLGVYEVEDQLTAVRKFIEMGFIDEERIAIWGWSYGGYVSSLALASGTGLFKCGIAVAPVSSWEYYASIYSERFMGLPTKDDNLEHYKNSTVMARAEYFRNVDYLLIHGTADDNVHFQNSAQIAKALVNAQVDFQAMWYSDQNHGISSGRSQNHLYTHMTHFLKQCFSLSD
Assay: radioligand competition with unlabelled tracer on HEK293T-FAP cells, […] °C, […] h
Format: cell-based

**Q.** For CN(CCCN1CCN(C(=O)CCCCC2(N(CC(=O)[O-])CC(=O)[O-])CN(CC(=O)[O-])CCN(CC(=O)[O-])C2)CC1)c1ccc2nccc(C(=O)NCC(=O)N3CC(F)(F)C[C@@H]3C#N)c2c1.[68Ga+3] [[^68Ga]Ga-AAZTA-FAPI-46], which IC50 is on record?
**A.** The IC50 was 4.61 ± 0.21 nM.
